From patent US8916137B2, “Monofunctional carbocyanine dyes for in vivo and in vitro imaging” (The General Hospital Corporation, priority 2008, dated 2014)

Assays:
[1] = cited from earlier work; for λem: as indicated on www.gelifesciences.com
[2] = as indicated on www.gelifesciences.com; cited from earlier work
[3] = Photostability (dye photobleaching under irradiation); type: physicochemical; conditions: for photobleached: after 60 minutes of irradiation at 620 nm, PBS pH 7.0, absorbance matched (FIG. 4); for photobleaching: irradiated for an hour at 620 nm, PBS pH 7.0, A620 nm<0.1 (FIG. 7)
Method: Photostability data were collected on a Horiba Jobin Yvon Fluorolog-3 spectrofluorometer (Edison, N.Y.) equipped with a 450 W xenon lamp (Ushio inc. Japan). Dye photobleaching was observed by monitoring the fluorescence emission of absorbance matched dye samples (absorbance <0.1) at an excitation wavelength 620 nm for 60 minutes. […] Thus, CyAm-5 acid has 28% better photostability than Cy5.
Dye samples with the same absorption (A620 nm<0.1) were irradiated for an hour at 620 nm. Both bio-conjugatable new dyes, CyAm-5 acid and CycloCyAm-5 acid with photobleaching of 30% and 12%, respectively, were more photostable than Cy5 (45%).

[4] = Absorption spectra and extinction coefficients of the fluorophores; type: physicochemical; conditions: PBS, pH 7.0
Method: Absorption spectra and extinction coefficients of the fluorophores were obtained on a Varian Cary 50-Bio UV-visible spectrophotometer. Extinction coefficients were measured in phosphate-buffered saline (PBS), 10 mM phosphate buffer pH 7.0, […] potassium chloride and 137 mM sodium chloride and were averaged over at least three sets of parallel experiments. For each trail, 2-3 mg of the HPLC-purified dyes were weighed on a Mettler AT201 analytical balance with an error of ±0.01 mg and were dissolved in deionized water using a 10 mL volumetric flask to prepare the stock solutions.
(§1) FIG. 9 summarizes the optical properties of CyAl-5 and CyAl-5.5. Spectra were obtained in phosphate buffered solution, pH 7.0. The extinction coefficients, at the dye absorption maxima, were performed in triplicate. Emission spectra were excited at 620 nm for CyAl-5 and 640 nm for CyAl-5.5. CyAl-5 and CyAl-5.5, Cy5 and Cy5.5 were used as fluorescence standards, respectively. The data are the average of at least 8 replicates and errors were <5%.

[5] = Emission spectra and fluorescence quantum yield; type: physicochemical; conditions: PBS, pH 7.0
Method: Emission spectra were collected on a Varian Cary Eclipse fluorescence spectrophotometer. Quantum yield measurements were performed on at least eight trails for each dye derivative with maximum absorption for each sample less than 0.1, using Cy5 as a standard (Φ=0.27) (Mujumdar, R. B., Ernst, L. A., Mujumdar, S. R., Lewis, C. J., and Waggoner, A. S. (1993) Cyanine dye labeling reagents: sulfoindocyanine succinimidyl esters. Bioconjug. Chem. 4, 105-11). The standard deviation for both the extinction coefficient and quantum yield measurements is less than 5%.
as §1

CHO cells = test: Fluorescence labeling and imaging of azido-sugar modified CHO cells by click reaction; type: cell-based, Chinese hamster; conditions: fixed CHO cells
Method: Chinese hamster ovary (CHO) cells were maintained in a 5% CO2, water-saturated atmosphere and grown in F12 HAMS medium supplemented with 10% FBS, 1% penstrep and 1% L-glutamine. For biolabeling experiments, the cells were incubated for 2-3 days in the regular medium or medium supplemented with 100 μM Ac4ManNAc (Molecular probes) in an eight-well LabTek II chamber slide (Nunc). The medium was gently aspirated, and the cells were fixed at −20° C. by methanol for 10 min and then acetone for 1 min. […] Fluorescent images were captured on a Nikon Eclipse TE2000-S fluorescence microscope with 40× objective equipped with a Photometrics Cascade 512B CCD camera using excitation and emission filters from Chroma Technology. […]
Cells incubated with azido-sugar supplemented media (top) or unsupplimented media (bottom) are presented after treatment with CyAm-5 alkyne in the presence of Cu(I)/TBTA as catalyst. Cell nuclei stained with DAPI colored blue (left), fluorescence signal from CyAm-5 alkyne colored red (center) and the merged images (right) are shown. […]
FIGS. 6A-6B show fluorescent imaging of CHO cells labeled with CyAm-5 alkyne and controls. […] Cell nuclei stained with DAPI, fluorescence of labeled CyAm-5 alkyne and merge figures of the two above are shown in column left, middle and right, respectively. […]

Compound | photobleached [3] [%] | photobleaching [3] [%] | λem [1] [nm] | λabs [2] [nm] | other results
CCN1/C(=C/C=C/C=C/C2=[N+](CCCCCC(=O)O)c3ccc(S(=O)(=O)O)cc3C2(C)C)C(C)(C)c2cc(S(=O)(=O)[O-])ccc21 [Cy5] | 54 | 45 | 664 | 646 | quantum yield of standard (Φ) ([1]; Cy5 used as standard, literature value): 0.27
C#Cc1cccc(NC(=O)CCC(/C=C/C2=[N+](CC)c3ccc(S(=O)(=O)O)cc3C2(C)C)=C\C=C2\N(CC)c3ccc(S(=O)(=O)O)cc3C2(C)C)c1 [CyAm-5 alkyne] | – | – | – | – | fluorescence signal of cells bearing azido sialic acid versus control cells (CHO cells; 20 μM dye, Cu(I) catalyst (FIG. 5)): increased fluorescence signal; conditions under which enhancement of fluorescence signal is observed (CHO cells; with or without Cu(I), TBTA, azido-sugar (FIG. 6A-B)): only observed in the presence of both catalyst Cu(I) and azido glycans
Cy5.5 | – | – | 693 | 673 | –

More lines, main results first:

photobleached [3] [%] | photobleaching [3] [%] | Compound | λem [1] [nm] | λabs [2] [nm] | other results
42 | 30 | CCN1/C(=C/C=C(/C=C/C2=[N+](CC)c3ccc(S(=O)(=O)O)cc3C2(C)C)CCC(=O)Nc2ccc(C(=O)O)cc2)C(C)(C)c2cc(S(=O)(=O)O)ccc21 [CyAm-5 acid] | – | – | better photostability / less photobleaching compared to Cy5 ([3]; after an hour irradiation at 620 nm (FIG. 4)): 28%; absorption maximum [4]: 642 nm; emission maximum [5]: 658 nm
– | 12 | CC1(C)C2=C(/C=C(/C=C3\CCC[N+]4=C3C(C)(C)c3cc(S(=O)(=O)O)ccc34)CCC(=O)Nc3ccc(C(=O)O)cc3)CCCN2c2ccc(S(=O)(=O)O)cc21 [CycloCyAm-5 acid] | – | – | –
